System: P. viticola
Assay: Protection of greenhouse vine plants against downy mildew (sporulating leaf area, leaf disks, 6 dpi)
Format: in vivo, Plasmopara viticola
Settings: A1 1 g/L, Pip 0.1 mM, alone or combined, FIG. 5
Description: Grapevine (V. vinifera cv. Marselan) herbaceous cuttings were grown in individual pots (10×7×7 cm) containing a mixture of peat and perlite (4:1, vol/vol) in a greenhouse at 25±4 and 18±7° C. (day and night, respectively) until they developed 6-8 leaves. Artificial illumination was supplemented when the natural light was less than 200 μmol. m.^−2 s^−1 during the 16 h light period. Plants were watered with a fertilization solution (Topfert2 Plantin. France).
Alginates A1, A2, A3 with a degree of polymerization (DP) of 491, 228, 355 respectively were used. They were prepared at 1, 2 and 4 g/L in ultrapure water and applied to both the upper and lower faces of leaves until the point of run-off using a manual sprayer. Plants were maintained in the greenhouse in the conditions described above. Ultrapure water was used as negative control and sprayed in the same manner. […]
Briefly, 6 days post-inoculation (dpi), leaf disks were punched out and placed with the abaxial side uppermost, on a moist Whatman paper, in a closed plastic box. […] Disease intensity was assessed by measuring the leaf area covered by the pathogen sporulation using a “macro” developed for the image analysis Visilog 6.9 software (Noesis, France; Kim Khiook et al., 2013) and the disease reduction rate is calculated as follows: (1−(treated sporulating area/control sporulating area))×100. […]

SMILES: O=C(O)C1CCCCN1 (stereo not shown) [Pip, pipecolic acid]
- rate protection against P. viticola: around 35%

From patent publication US20230000088A1, “USE OF ALGINATES OLIGOMERS TO IMPROVE PLANT PROTECTION AGAINST PATHOGENS” (Université de Bourgogne, priority 2019, published 2023)
